Experimental data published in ChEMBL document CHEMBL1126675, “Structure-based design of inhibitors of purine nucleoside phosphorylase. 1. 9-(arylmethyl) derivatives of 9-deazaguanine” (J Med Chem, 1993).

Columns and labels:
[1] = molecular target: T1, Purine nucleoside phosphorylase (Homo sapiens, UniProt P00491); experiment: Inhibition of Purine nucleoside phosphorylase was evaluated against the enzyme from Human erythrocytic in 50 mM phosphate; format: tissue-based
T1 sequence (P00491 whole entry): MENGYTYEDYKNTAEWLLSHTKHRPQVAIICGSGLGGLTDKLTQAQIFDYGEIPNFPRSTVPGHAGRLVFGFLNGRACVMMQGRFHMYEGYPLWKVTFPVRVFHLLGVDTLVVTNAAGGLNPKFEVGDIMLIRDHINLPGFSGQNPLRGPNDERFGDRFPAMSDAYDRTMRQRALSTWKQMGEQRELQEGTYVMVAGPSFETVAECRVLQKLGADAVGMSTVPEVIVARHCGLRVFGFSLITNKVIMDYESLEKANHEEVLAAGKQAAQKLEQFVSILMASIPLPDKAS

[2] = molecular target: T2, Purine nucleoside phosphorylase (Bos taurus, UniProt P55859); experiment: Inhibition of Purine nucleoside phosphorylase was evaluated against the enzyme from calf spleen in 50 mM phosphate
T2 sequence (P55859 whole entry): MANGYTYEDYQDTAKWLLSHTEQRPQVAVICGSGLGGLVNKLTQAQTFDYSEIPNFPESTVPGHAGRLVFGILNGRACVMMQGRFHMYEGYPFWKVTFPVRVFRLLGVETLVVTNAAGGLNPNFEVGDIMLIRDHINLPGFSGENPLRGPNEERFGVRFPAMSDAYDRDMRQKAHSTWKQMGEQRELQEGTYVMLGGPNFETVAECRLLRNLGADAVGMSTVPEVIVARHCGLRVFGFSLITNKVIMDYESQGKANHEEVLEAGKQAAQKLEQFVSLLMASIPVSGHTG

[3] = molecular target: T2, Purine nucleoside phosphorylase; experiment: Inhibition of purine nucleoside phosphorylase against the enzyme from calf spleen in 1 mM phosphate
[4] = molecular target: T2, Purine nucleoside phosphorylase; experiment: Inhibition of Purine nucleoside phosphorylase was evaluated against the enzyme from calf spleen in 1 mM phosphate; format: tissue-based

| IC50 [2] | IC50 [3] | SMILES | IC50 [1] | also measured |
| --- | --- | --- | --- | --- |
| – | – | Cc1ccsc1CC1=Nc2c(O)nc(N)nc2C1 | 47600 nM | – |
| – | – | Cc1ccsc1Cc1nc2nc(N)[nH]c(=O)c2[nH]1 | 47600 nM | – |
| – | – | Nc1nc(O)c2[nH]c(Cc3cccs3)nc2n1 | 11000 nM | – |
| – | – | Nc1nc2nc(-c3cccnc3)[nH]c2c(=O)[nH]1 | 57000 nM | – |
| 190 nM | 36 nM | Nc1nc2c(Cc3cccc(C(F)(F)F)c3)c[nH]c2c(=O)[nH]1 | – | – |
| – | – | Nc1nc(O)c2[nH]c(NCc3ccco3)nc2n1 | 250 nM | – |
| 160 nM | 160 nM | Nc1nc(O)c2nc(N)n(Cc3cccs3)c2n1 | – | – |
| – | – | Nc1nc(O)c2c(n1)CC(Cc1ccco1)=N2 | 57 nM | – |
| 660 nM | 82 nM | COc1cccc(Cc2c[nH]c3c(O)nc(N)nc23)c1 | – | – |
| – | – | Nc1nc(O)c2c(n1)CC(NCc1ccsc1)=N2 | 630 nM | – |
| – | – | Nc1nc(O)c2[nH]c(Cc3ccsc3)nc2n1 | 11000 nM | – |
| 10000 nM | 240 nM | Nc1nc(O)c2[nH]cc(Cc3cc(Cl)cc(Cl)c3Cl)c2n1 | – | – |
| – | – | Nc1nc(O)c2c(n1)CC(Cc1ccccc1)=N2 | 85 nM | – |
| – | 0.63 nM | NC1=NC(=O)C2NC(N)=C(Cc3ccsc3)C2N1 (configuration not stated) | – | – |
| – | – | Nc1nc(O)c2c(n1)CC(NCc1cccs1)=N2 | 1000 nM | – |
| – | – | Nc1nc(O)c2c(n1)CC(Cc1cccs1)=N2 | 30 nM | – |
| – | – | Nc1nc(O)c2[nH]c(Cc3ccccc3)nc2n1 | 29600 nM | – |
| – | – | Nc1nc(O)c2[nH]c(Nc3cccnc3)nc2n1 | 21900 nM | – |

| IC50 [2] | IC50 [3] | SMILES | IC50 [1] | also measured |
| --- | --- | --- | --- | --- |
| 220 nM | 24 nM | Nc1nc2c(Cc3cccc(F)c3)c[nH]c2c(=O)[nH]1 | – | – |
| – | – | Cc1ccsc1CNc1nc2[nH]c(N)nc(O)c-2n1 | 4050 nM | – |
| 2000 nM | 270 nM | Nc1nc2c(Cc3ccccc3O)c[nH]c2c(=O)[nH]1 | – | – |
| – | – | Nc1nc(O)c2c(n1)CC(NCc1ccco1)=N2 | 750 nM | – |
| – | – | Nc1nc(O)c2c(n1)CC(Cc1ccsc1)=N2 | 67 nM | – |
| – | – | NC1=NC(=O)C2NC=C(Cc3ccccc3)C2N1 (configuration not stated) | – | Ki [2]: 100 nM; Ki [4]: 12 nM |
| 2300 nM | 260 nM | Nc1nc(O)c2[nH]cc(Cc3ccc(O)cc3)c2n1 | – | – |
| – | – | Nc1nc(O)c2[nH]c(Cc3ccco3)nc2n1 | 17900 nM | – |
| – | – | Nc1nc2nc(NCc3ccsc3)[nH]c2c(=O)[nH]1 | 85 nM | – |
| 270 nM | 57 nM | Cc1cccc(Cc2c[nH]c3c(=O)[nH]c(N)nc23)c1 | – | – |
| – | – | Nc1nc(O)c2c(n1)CC(NCc1ccccc1)=N2 | 850 nM | – |
| 2520 nM | 120 nM | Nc1nc(O)c2[nH]cc(Cc3ccccc3Cl)c2n1 | – | – |
| 250 nM | 17 nM | Nc1nc2c(Cc3ccc(Cl)c(Cl)c3)c[nH]c2c(=O)[nH]1 | – | – |
| – | – | Nc1nc(O)c2[nH]c(NCc3cccs3)nc2n1 | 160 nM | – |
| 270 nM | 23 nM | Nc1nc2c(Cc3ccc(I)cc3)c[nH]c2c(=O)[nH]1 | – | – |
| – | – | Nc1nc2nc(NCc3ccccc3)[nH]c2c(=O)[nH]1 | 470 nM | – |
| – | – | Cc1ccsc1CNC1=Nc2c(O)nc(N)nc2C1 | 4050 nM | – |
| – | 83 nM | Nc1nc(O)c2[nH]cc(Cc3ccco3)c2n1 | – | – |

| SMILES | IC50 [2] | IC50 [3] | IC50 [1] | also measured |
| --- | --- | --- | --- | --- |
| Nc1nc2c(Cc3cccc(Oc4ccccc4)c3)c[nH]c2c(=O)[nH]1 | 740 nM | – | – | – |
| Nc1nc(O)c2c(n1)CC(c1cccnc1)=N2 | 0.16 nM | – | – | – |
| Nc1nc2c(Cc3cccnc3)c[nH]c2c(=O)[nH]1 [PELDESINE] | 190 nM | 25 nM | – | – |
| Nc1nc(O)c2[nH]cc(Cc3ccsc3)c2n1 | – | 25 nM | – | – |
| NC1=NC(=O)C2NC=C(Cc3ccsc3)C2N1 (configuration not stated) | – | 0.067 nM | – | Ki [4]: 15 nM |
| Nc1nc2c(Cc3cccc(Cl)c3)c[nH]c2c(=O)[nH]1 | 150 nM | 20 nM | – | – |
